The values that follow come from ChEMBL document CHEMBL1201862, “PubChem BioAssay data set” (2004).

Holding throughout (assay): DTP human tumour cell line panel, 48 h
Test [1] relates to NCI-H460.
In test [2] the test system is MCF7.
For test [3], the system named is RXF 393.
The test system of test [4] is M14.
The subject of test [5] is SK-MEL-28.
In test [6] the test system is HOP-92.
Test [7] deals with SNB-75.
In test [8] the test system is SK-OV-3.
For test [9], the system named is CAKI-1.
Test [10] relates to A498.
In test [11] the test system is OVCAR-8.
Test [12] has as its system MDA-MB-231.
Test [13] has as its system U-251.
Test [14] concerns HCC 2998.
For test [15], the system named is PC-3.
Test [16] relates to SK-MEL-5.
In test [17] the test system is SK-MEL-2.
Test [18] deals with T47D.
Test [19] deals with SW-620.
Test [20] has as its system NCI-H23.

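Step 1: Grow cells in 96-well plates. Step 2: Expose to compound for 48 hours at 5 concentrations. Step 3: Interpolate endpoints linearly; if unreached, use highest concentration. Abbreviation: GI50, concentration required for 50% inhibition of growth.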 Activity calls are given as the source filed them. No stated cut-off is given here; in the data, active = GI50 up to about 1.1 µM and inactive = higher.

Broadly, the GI50 is the concentration giving 50% growth inhibition. As for `Nc1nc(SCc2ccccc2)c2ncn(Cc3ccccc3)c2n1`, the GI50 in test [1] was > 79.4 µM (inactive); in test [2] it was > 90.8 µM (inactive); in test [3], 62.2 µM (inactive); in test [4] it was > 100 µM (inactive); in [5] it was > 100 µM (inactive); in [6], > 85.9 µM (inactive). For the same compound, the GI50 is 35.8 µM (inactive) in [7]; > 100 µM (inactive) in [8]; 30.1 µM (inactive) in test [9]; > 44.9 µM (inactive) in test [10]; > 100 µM (inactive) in [11]; > 100 µM (inactive) in [12]. The GI50 in [13] is > 100 µM (inactive); in test [14], > 100 µM (inactive); in test [15], > 100 µM (inactive); in test [16] it was > 63 µM (inactive); in test [17], > 58.1 µM (inactive); in test [18], > 47.6 µM (inactive). The GI50 in [19] was > 100 µM (inactive); in test [20], > 67.8 µM (inactive).
With `COc1ccc(N2N=NN(C(C)C)/C2=C(/Cl)c2nnnn2-c2ccc(OC)cc2)cc1`, the GI50 in [1] was 18.7 µM (inactive); in [2], 9.46 µM (inactive); in [3], 13.8 µM (inactive); in test [4], 8.81 µM (inactive); in test [5], 15.5 µM (inactive); in test [6] it was 2.25 µM (inactive). The GI50 in test [7] is 13 µM (inactive); in [8] it was 18.2 µM (inactive); in [9], 1.75 µM (inactive); in test [10], 16 µM (inactive); in test [11] it was 6.11 µM (inactive); in [12] it was 9.14 µM (inactive). Moreover, the GI50 in test [13] is 17.5 µM (inactive); in [14], 19.5 µM (inactive); in [15], 14.6 µM (inactive); in test [16], 15.2 µM (inactive); in test [17], 13.4 µM (inactive); in test [18], 4.55 µM (inactive). The GI50 was 1.82 µM (inactive) in test [19] and 16.8 µM (inactive) in [20].
For `CCOC(=O)c1cccc(NC(=O)CBr)c1`, the GI50 is 0.927 µM (active) in [1]; 1.19 µM (inactive) in test [2]; 1.72 µM (inactive) in [3]; 1.3 µM (inactive) in test [4]; 2.62 µM (inactive) in test [5]; 1.93 µM (inactive) in test [6]. In addition, the GI50 in [7] is 1.74 µM (inactive); in [8], 1.85 µM (inactive); in [9] it was 0.618 µM (active); in test [10], 3.43 µM (inactive); in test [11] it was 1.11 µM (active); in test [12], 1.82 µM (inactive). Moreover, the concentration for 50% growth inhibition (GI50) was 0.581 µM (active) in test [13]; 2.3 µM (inactive) in [14]; 1.55 µM (inactive) in test [15]; 1.41 µM (inactive) in test [16]; 1.56 µM (inactive) in test [17]; 1.7 µM (inactive) in [18]. Moreover, the values for the GI50 in test [19] and in [20] were 0.361 µM (active) and 0.942 µM (active), respectively.
For `N#C[C@@H](c1nc2ccccc2s1)c1ncccc1[N+](=O)[O-]`, the GI50 is 5.62 µM (inactive) in test [1]; 5.11 µM (inactive) in [2]; 5.87 µM (inactive) in test [3]; 8.22 µM (inactive) in test [4]; > 10 µM (inactive) in test [5]; 1.32 µM (inactive) in test [6]. The GI50 in test [7] is 13.9 µM (inactive); in test [8], 16.6 µM (inactive); in [9], 19 µM (inactive); in [10], 10.8 µM (inactive); in [11], 9.06 µM (inactive); in test [12], 7.83 µM (inactive). Also, the GI50 is 3.48 µM (inactive) in test [13]; 10.6 µM (inactive) in test [14]; 5.16 µM (inactive) in test [15]; 3.24 µM (inactive) in test [16]; 4.12 µM (inactive) in [17]; 4.18 µM (inactive) in test [18]. Also, the values for the GI50 in test [19] and in test [20] were > 10 µM (inactive) and 3.7 µM (inactive), respectively.
Consider `COc1cc(/C=C(\C)[N+](=O)[O-])cc(OC)c1`, for which the GI50 in [1] is 20.2 µM (inactive); in test [2], 6.73 µM (inactive); in test [3], 7.48 µM (inactive); in test [4] it was 14.8 µM (inactive); in [5] it was 18.4 µM (inactive); in test [6] it was 13.5 µM (inactive). The GI50 in [7] was 16.7 µM (inactive); in test [8] it was > 100 µM (inactive); in [9], 14.5 µM (inactive); in test [10], 8.05 µM (inactive); in [11] it was 15.6 µM (inactive); in test [12], 16.7 µM (inactive). Besides, the GI50 is 17.7 µM (inactive) in [13]; 25.1 µM (inactive) in test [14]; 20.1 µM (inactive) in [15]; 16 µM (inactive) in [16]; 17.2 µM (inactive) in test [17]; 6.47 µM (inactive) in test [18]. Moreover, the GI50 in [19] was 4.49 µM (inactive); in test [20], 19.1 µM (inactive).
Consider `Cc1[nH]c2ncn3ncnc3c2c1Cc1ccccc1`, for which the GI50 in test [1] was > 100 µM (inactive); in test [2], > 100 µM (inactive); in test [3], 50 µM (inactive); in [4], > 100 µM (inactive); in test [5], > 100 µM (inactive); in test [6], 54.1 µM (inactive). In addition, the GI50 in [7], in test [8], in test [9], in [10], in [11] and in test [12] was > 100 µM (inactive) throughout. Moreover, the GI50 in test [13], in test [14], in test [15], in test [16], in test [17] and in test [18] was > 100 µM (inactive) each time. The GI50 was > 100 µM (inactive) in test [19] and 91.6 µM (inactive) in [20].
Regarding `C[n+]1c2ccccc2n2c3ccccc3c(NCc3ccco3)c(C#N)c21`, the GI50 in [1] was 1.1 µM (active); in test [2], 0.575 µM (active); in [3], 1.65 µM (inactive); in test [4] it was 2.3 µM (inactive); in test [5] it was 1.99 µM (inactive); in test [6], 5.94 µM (inactive). Besides, the GI50 in test [7] is 2.02 µM (inactive); in test [8], 3.85 µM (inactive); in test [9], 2.07 µM (inactive); in test [10], 6.08 µM (inactive); in test [11], 1.24 µM (inactive); in test [12] it was 2.21 µM (inactive). For the same compound, the GI50 in [13] is 2 µM (inactive); in test [14] it was 0.659 µM (active); in test [15], 2.23 µM (inactive); in test [16] it was 2.78 µM (inactive); in test [17] it was 2 µM (inactive); in test [18] it was 3.67 µM (inactive). For the same compound, the GI50 in [19] is 0.64 µM (active); in test [20], 1.46 µM (inactive).
Regarding `CC(C)(C)[Si](C)(C)OCC1OC(n2cnc3c(=O)[nH]c(N)nc32)C(O[Si](C)(C)C(C)(C)C)C1O[Si](C)(C)C(C)(C)C` (stereo not given), the GI50 was 1.32 µM (inactive) in test [1]; 2.33 µM (inactive) in test [2]; 2.04 µM (inactive) in [3]; 1.5 µM (inactive) in test [4]; 1.93 µM (inactive) in test [5]; 2.61 µM (inactive) in test [6]. The GI50 in [7] was 3.11 µM (inactive); in test [8], 1.95 µM (inactive); in [9] it was 10.9 µM (inactive); in test [10] it was 2.39 µM (inactive); in test [11], 3.2 µM (inactive); in [12], 3.71 µM (inactive). The GI50 in test [13] was 1.78 µM (inactive); in test [14] it was 1.98 µM (inactive); in test [15] it was 1.55 µM (inactive); in [16], 0.594 µM (active); in test [17], 0.176 µM (active); in test [18], 2.09 µM (inactive). Moreover, the GI50 in [19] was 2.47 µM (inactive); in test [20], 1.44 µM (inactive).
As for `C=C1C(=O)C23CC1C[C@H](OC(C)=O)C2C1(C)C(OC(C)=O)C[C@H](O)C(C)(C)[C@H]1C(O)[C@@H]3OC(C)=O` (stereo not given in full), the GI50 in test [1] is 26.7 µM (inactive); in test [2] it was 5.78 µM (inactive); in test [3], 7.24 µM (inactive); in [4] it was 6.5 µM (inactive); in test [5], 11.9 µM (inactive); in test [6] it was 9.29 µM (inactive). Further, the GI50 in [7] was 18.8 µM (inactive); in test [8], 24.8 µM (inactive); in [9] it was 16.4 µM (inactive); in test [10] it was 15.1 µM (inactive); in [11], 2.96 µM (inactive); in test [12], 7.19 µM (inactive). The GI50 in test [13] was 15.3 µM (inactive); in test [14] it was 21.2 µM (inactive); in [15], 11.1 µM (inactive); in [16], 14.6 µM (inactive); in test [17] it was 14.8 µM (inactive); in [18], 6.67 µM (inactive). For the same compound, the values for the GI50 in test [19] and in test [20] were 2.48 µM (inactive) and 12.6 µM (inactive), respectively.
